The results in this text go back to patent US10280166B2, “2-(1H-indazol-3-yl)-3H-imidazo[4,5-B]pyridine and therapeutic uses thereof” (Samumed, LLC, priority 2014, dated 2019).

Experiment [1] has as its system primary human fibroblasts derived from IPF patients (LL29 cells). The experiment can be described thus: Inhibition of fibrosis (αSMA) in TGF-β1 treated primary human fibroblasts from IPF patients. It is filed as cell-based. The settings on record: Fibroblast, 96 h, TGF-β1 20 ng/mL, 4 days, % αSMA positive cells. In a few lines:
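IPF patient-derived LL29 lung fibroblasts in 1% FBS were treated with compound (11 points, 10 μM to 1.87 nM, 0.1% DMSO) and then 20 ng/mL TGF-β1 for 4 days at 37° C. Fraction of SYTOX-negative cells positive for αSMA was quantified by immunofluorescence imaging and normalized to TGF-β1 controls. EC50 came from non-linear regression over triplicate wells.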

Experiment [2] deals with Wnt activity (SW480 colon carcinoma cells stably expressing the Sp5-Luc reporter gene). Description: Sp5-Luc reporter gene screening assay for Wnt activity in SW480 cells. The format is cell-based. As to conditions: Homo sapiens, 42 h incubation, luminescence. An outline of the steps:
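SW480 cells stably carrying an Sp5 promoter (eight TCF/LEF sites)-luciferase reporter were plated overnight in 10% FCS medium. BrightGlo luminescence was normalised to DMSO wells, and IC50 was obtained by four-parameter fit.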

Bounds are passed on as bounds.

For orientation: EC50 means the concentration at which the effect is half-maximal. As a reminder, the IC50 is the concentration that gives 50% inhibition. High values mean lower potency, low ones higher potency. In turn, `NC1CN(c2cncc(-c3ccc4[nH]nc(-c5nc6c(-c7cccc(F)c7)ccnc6[nH]5)c4c3)n2)C1` [Compound 1878, 1-(6-(3-(7-(3-Fluorophenyl)-3H-imidazo[4,5-b]pyridin-2-yl)-1H-indazol-5-yl)pyrazin-2-yl)azetidin-3-amine] yielded an EC50 in experiment [1] of 9.99 nM. Moreover, the concentration for half-maximal inhibition (IC50) in experiment [2] was found to be 215 nM.
Taken in the same sequence, the figures for `FC1(F)CCN(Cc2cncc(-c3ccc4[nH]nc(-c5nc6c(-c7cccs7)ccnc6[nH]5)c4c3)c2)C1` [Compound 337, 2-(5-(5-((3,3-Difluoropyrrolidin-1-yl)methyl)pyridin-3-yl)-1H-indazol-3-yl)-7-(thiophen-2-yl)-3H-imidazo[4,5-b]pyridine] were 1.31 nM and 15 nM.
On the same counts, the results for `FC1(F)CCN(Cc2cncc(-c3ccc4[nH]nc(-c5nc6c(N7CCCCC7)ccnc6[nH]5)c4c3)c2)C1` [Compound 181, 2-(5-(5-((3,3-Difluoropyrrolidin-1-yl)methyl)pyridin-3-yl)-1H-indazol-3-yl)-7-(piperidin-1-yl)-3H-imidazo[4,5-b]pyridine] are 0.009 nM and 2580 nM.
On the same counts, the results for `Cc1cn(-c2ccnc3[nH]c(-c4n[nH]c5ccc(-c6cncc(NC(=O)C(C)(C)C)c6)cc45)nc23)cn1` [Compound 190, N-(5-(3-(7-(4-Methyl-1H-imidazol-1-yl)-3H-imidazo[4,5-b]pyridin-2-yl)-1H-indazol-5-yl)pyridin-3-yl)pivalamide] are 0.009 nM and 7.4 nM.
With `CC(C)C(=O)Nc1cncc(-c2ccc3[nH]nc(-c4nc5c(N6CCN(C)CC6)ccnc5[nH]4)c3c2)c1` [Compound 217, N-(5-(3-(7-(4-Methylpiperazin-1-yl)-3H-imidazo[4,5-b]pyridin-2-yl)-1H-indazol-5-yl)pyridin-3-yl)isobutyramide], the EC50 in experiment [1] is 2.83 nM. Besides, inhibition in experiment [2] was half-maximal at 173 nM (IC50).
`Fc1cccc(-c2ccnc3[nH]c(-c4n[nH]c5ccc(-c6ccncc6)cc45)nc23)c1` [Compound 1888, 7-(3-Fluorophenyl)-2-(5-(pyridin-4-yl)-1H-indazol-3-yl)-3H-imidazo[4,5-b]pyridine]: the midpoint of the response in experiment [1], the EC50, lay at 9.99 nM. Also, the IC50 in experiment [2] is greater than 10000 nM.
As for `c1ccc(CNCc2cncc(-c3ccc4[nH]nc(-c5nc6c(-c7ccsc7)ccnc6[nH]5)c4c3)c2)cc1` [Compound 283, N-Benzyl-1-(5-(3-(7-(thiophen-3-yl)-3H-imidazo[4,5-b]pyridin-2-yl)-1H-indazol-5-yl)pyridin-3-yl)methanamine], the EC50 in experiment [1] stood at 0.605 nM. Further, 137 nM corresponded to half-maximal inhibition in experiment [2] (IC50).
As for `Cc1ccc(-c2ccnc3[nH]c(-c4n[nH]c5ccc(-c6cncc(N)c6)cc45)nc23)s1` [Compound 367, 5-(3-(7-(5-Methylthiophen-2-yl)-3H-imidazo[4,5-b]pyridin-2-yl)-1H-indazol-5-yl)pyridin-3-amine], in experiment [1], the concentration for a half-maximal effect (EC50) was 0.314 nM. In experiment [2], this compound returned an IC50 of 4.3 nM.
Consider `Fc1cccc(-c2ccnc3[nH]c(-c4n[nH]c5ccc(-c6cnccn6)cc45)nc23)c1` [Compound 1890, 7-(3-Fluorophenyl)-2-(5-(pyrazin-2-yl)-1H-indazol-3-yl)-3H-imidazo[4,5-b]pyridine], for which the EC50 in experiment [1] was 0.167 nM. For the same compound, in experiment [2], the IC50 was 39 nM.
The compound `CN(C)Cc1cncc(-c2ccc3[nH]nc(-c4nc5c(N6CCCCC6)ccnc5[nH]4)c3c2)c1` [Compound 169, N,N-Dimethyl-1-(5-(3-(7-(piperidin-1-yl)-3H-imidazo[4,5-b]pyridin-2-yl)-1H-indazol-5-yl)pyridin-3-yl)methanamine] came in with an EC50 in experiment [1] of 0.396 nM. Further, the midpoint of inhibition in experiment [2], the IC50, lay at 1450 nM.
On to `CC(C)Nc1cncc(-c2ccc3[nH]nc(-c4nc5c(-c6cc(F)cc(NCCN(C)C)c6)ccnc5[nH]4)c3c2)c1` [Compound 454, N^1-(3-Fluoro-5-(2-(5-(5-(isopropylamino)pyridin-3-yl)-1H-indazol-3-yl)-3H-imidazo[4,5-b]pyridin-7-yl)phenyl)-N^2,N^2-dimethylethane-1,2-diamine], for which it took 0.019 nM to reach a half-maximal effect in experiment [1] (EC50). It took 51.7 nM to reach half-maximal inhibition in experiment [2] (IC50).
`CCCCC(=O)Nc1cncc(-c2ccc3[nH]nc(-c4nc5c(-c6ccoc6)ccnc5[nH]4)c3c2)c1` [Compound 304, N-(5-(3-(7-(Furan-3-yl)-3H-imidazo[4,5-b]pyridin-2-yl)-1H-indazol-5-yl)pyridin-3-yl)pentanamide] had a 50% effective concentration (EC50) in experiment [1] of 0.079 nM. Also, in experiment [2], the IC50 was 6 nM.
Taken in the same sequence, the figures for `CC(C)C(=O)Nc1cncc(-c2ccc3[nH]nc(-c4nc5c(-c6cccc(F)c6)ccnc5[nH]4)c3c2)c1` [Compound 9] were 9.99 nM and 3 nM.
On to `CN1CCN(c2ccnc3[nH]c(-c4n[nH]c5ccc(-c6cncnc6)cc45)nc23)CC1` [Compound 234, 7-(4-Methylpiperazin-1-yl)-2-(5-(pyrimidin-5-yl)-1H-indazol-3-yl)-3H-imidazo[4,5-b]pyridine], for which the EC50 in experiment [1] turned out to be 0.434 nM. Also, the 50% inhibitory concentration (IC50) in experiment [2] came out at 795 nM.
Take `CS(=O)(=O)NCc1cc(F)cc(-c2ccnc3[nH]c(-c4n[nH]c5ccc(-c6cncc(CNCc7ccccc7)c6)cc45)nc23)c1` [Compound 439, N-(3-(2-(5-(5-((Benzylamino)methyl)pyridin-3-yl)-1H-indazol-3-yl)-3H-imidazo[4,5-b]pyridin-7-yl)-5-fluorobenzyl)methanesulfonamide]: the EC50 in experiment [1] is 0.009 nM. Inhibition in experiment [2] was half-maximal at 354 nM (IC50).
`CN(C)CC(=O)Nc1cncc(-c2ccc3[nH]nc(-c4nc5c(-c6cccc(F)c6)ccnc5[nH]4)c3c2)c1` [Compound 2373, 2-(Dimethylamino)-N-(5-(3-(7-(3-fluorophenyl)-3H-imidazo[4,5-b]pyridin-2-yl)-1H-indazol-5-yl)pyridin-3-yl)acetamide] displayed an EC50 in experiment [1] of 0.233 nM. For the same compound, half-maximal inhibition in experiment [2] (IC50) was put at 91 nM.
For `O=C(Nc1cncc(-c2ccc3[nH]nc(-c4nc5c(-c6ccsc6)ccnc5[nH]4)c3c2)c1)c1ccccc1` [Compound 271, N-(5-(3-(7-(Thiophen-3-yl)-3H-imidazo[4,5-b]pyridin-2-yl)-1H-indazol-5-yl)pyridin-3-yl)benzamide], a half-maximal response in experiment [1] (EC50) required 0.068 nM. Moreover, in experiment [2], the IC50 worked out at 8.4 nM.
`CN(C)c1cncc(-c2ccc3[nH]nc(-c4nc5c(N6CCCCC6)ccnc5[nH]4)c3c2)c1` [Compound 163, N,N-Dimethyl-5-(3-(7-(piperidin-1-yl)-3H-imidazo[4,5-b]pyridin-2-yl)-1H-indazol-5-yl)pyridin-3-amine] registered an EC50 in experiment [1] of 0.009 nM. In experiment [2], this compound displayed a concentration for half-maximal inhibition (IC50) of 122 nM.
Compound `O=C(Nc1cncc(-c2ccc3[nH]nc(-c4nc5c(-c6ccccc6F)ccnc5[nH]4)c3c2)c1)C1CC1` [Compound 71, N-(5-(3-(7-(2-Fluorophenyl)-3H-imidazo[4,5-b]pyridin-2-yl)-1H-indazol-5-yl)pyridin-3-yl)cyclopropanecarboxamide] showed an EC50 in experiment [1] of 9.99 nM. Further, the midpoint of inhibition in experiment [2], the IC50, lay at 11.1 nM.
In experiment [1], `CN(C)c1cncc(-c2ccc3[nH]nc(-c4nc5c(-c6ccccc6F)ccnc5[nH]4)c3c2)c1` [Compound 59, 5-(3-(7-(2-Fluorophenyl)-3H-imidazo[4,5-b]pyridin-2-yl)-1H-indazol-5-yl)-N,N-dimethylpyridin-3-amine] gave an EC50 of 0.009 nM. In experiment [2], this compound registered a concentration for half-maximal inhibition (IC50) of 31.9 nM.
`Cn1cc(-c2ccc3[nH]nc(-c4nc5c(-c6cccc(F)c6)ccnc5[nH]4)c3c2)cn1` [Compound 1876, 7-(3-Fluorophenyl)-2-(5-(1-methyl-1H-pyrazol-4-yl)-1H-indazol-3-yl)-3H-imidazo[4,5-b]pyridine] had a half-maximal effective concentration (EC50) in experiment [1] of 9.99 nM. In addition, in experiment [2], the IC50 turned out to be 61 nM.
With `c1ccc(CNCc2cncc(-c3ccc4[nH]nc(-c5nc6c(-c7cccnc7)ccnc6[nH]5)c4c3)c2)cc1` [Compound 101, N-Benzyl-1-(5-(3-(7-(pyridin-3-yl)-3H-imidazo[4,5-b]pyridin-2-yl)-1H-indazol-5-yl)pyridin-3-yl)methanamine], the EC50 in experiment [1] came out at 0.235 nM. The same compound showed an IC50 in experiment [2] greater than 10000 nM.
In turn, `O=C(Nc1cncc(-c2ccc3[nH]nc(-c4nc5c(-c6cccc(F)c6)ccnc5[nH]4)c3c2)c1)C1CCCC1` [Compound 21, N-(5-(3-(7-(3-Fluorophenyl)-3H-imidazo[4,5-b]pyridin-2-yl)-1H-indazol-5-yl)pyridin-3-yl)cyclopentanecarboxamide] registered an EC50 in experiment [1] of 0.027 nM. Moreover, half-maximal inhibition in experiment [2] (IC50) required 9.1 nM.
On the same counts, the results for `CCNCc1cncc(-c2ccc3[nH]nc(-c4nc5c(-c6cc(F)cc(NCCN(C)C)c6)ccnc5[nH]4)c3c2)c1` [Compound 448, N^1-(3-(2-(5-(5-((Ethylamino)methyl)pyridin-3-yl)-1H-indazol-3-yl)-3H-imidazo[4,5-b]pyridin-7-yl)-5-fluorophenyl)-N^2,N^2-dimethylethane-1,2-diamine] are 0.701 nM and 203 nM.
On the same counts, the results for `O=C(Cc1ccccc1)Nc1cncc(-c2ccc3[nH]nc(-c4nc5c(-c6ccsc6)ccnc5[nH]4)c3c2)c1` [Compound 270, 2-Phenyl-N-(5-(3-(7-(thiophen-3-yl)-3H-imidazo[4,5-b]pyridin-2-yl)-1H-indazol-5-yl)pyridin-3-yl)acetamide] are 0.01 nM and 16.3 nM.
As for `O=C(Nc1cncc(-c2ccc3[nH]nc(-c4nc5c(N6CCCCC6)ccnc5[nH]4)c3c2)c1)C1CC1` [Compound 175, N-(5-(3-(7-(Piperidin-1-yl)-3H-imidazo[4,5-b]pyridin-2-yl)-1H-indazol-5-yl)pyridin-3-yl)cyclopropanecarboxamide], in experiment [1], the response was half-maximal at 9.99 nM (EC50). Besides, the IC50 in experiment [2] stood at 99.3 nM.
